Test results reported in patent publication US8969327B2, “Substituted androst-4-ene diones” (priority 2010, dated 2015).

Biological target: T1, Purified P450arom (aromatase) reconstituted with P450-reductase (CPR) (Homo sapiens, UniProt P11511)
T1 sequence (P11511 1-503): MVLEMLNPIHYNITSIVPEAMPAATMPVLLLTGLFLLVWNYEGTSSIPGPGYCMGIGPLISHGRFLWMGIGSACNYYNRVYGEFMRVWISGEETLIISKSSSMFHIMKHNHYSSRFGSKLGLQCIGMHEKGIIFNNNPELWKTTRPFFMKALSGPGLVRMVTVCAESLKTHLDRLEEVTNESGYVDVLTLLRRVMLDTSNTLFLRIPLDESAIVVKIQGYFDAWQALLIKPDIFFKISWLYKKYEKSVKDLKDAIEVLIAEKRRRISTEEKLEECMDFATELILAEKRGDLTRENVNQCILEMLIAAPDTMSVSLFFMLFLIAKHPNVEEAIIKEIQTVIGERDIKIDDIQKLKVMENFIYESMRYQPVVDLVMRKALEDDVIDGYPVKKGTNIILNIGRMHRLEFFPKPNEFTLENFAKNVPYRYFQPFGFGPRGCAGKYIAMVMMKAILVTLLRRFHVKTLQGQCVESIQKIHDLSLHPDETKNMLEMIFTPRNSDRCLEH
Assay: Measurement of aromatase activity by 3H-water method
Type: biochemical
Details: substrate 0.24 μM [1β-3H, 4-14C] androstenedione, 37° C., 20 minutes

[1] = compound concentration 0.1 (μmol)
[2] = compound concentration 1 (μmol)
[3] = compound concentration 10 (μmol)

| Compound | % Inhibition [1] | % Inhibition [2] | % Inhibition [3] |
| --- | --- | --- | --- |
| CCC#CCO[C@@H]1C[C@@H]2[C@H](CC[C@]3(C)C(=O)CC[C@@H]23)[C@@]2(C)C=CC(=O)C=C12 [HDDG-046, (6R,8S,9S,10R,13S,14S)-10,13-dimethyl-6-(pent-2-yn-1-yloxy)-7,8,9,10,11,12,13,14,15,16-decahydro-3H-cyclopenta[α]phenanthrene-3,17(6H)-dione] | 89% | 96% | 99% |
| CC(=O)O[C@@H]1C[C@@H]2[C@H](CC[C@]3(C)C(=O)CC[C@@H]23)[C@@]2(C)C=CC(=O)C=C12 [HDDG-033] | 48% | 96% | 100% |
| C#CCO[C@@H]1C[C@@H]2[C@H](CC[C@]3(C)C(=O)CC[C@@H]23)[C@@]2(C)C=CC(=O)C=C12 [HDDG-026] | 10% | 35% | 80% |
| C[C@]12C=CC(=O)C=C1[C@H](OCC#Cc1ccccc1)C[C@@H]1[C@@H]2CC[C@]2(C)C(=O)CC[C@@H]12 [HDDG-027] | 27% | 66% | 94% |
| C[C@]12C=CC(=O)C(=[N+]=[N-])C1=CC[C@@H]1[C@@H]2CC[C@]2(C)C(=O)CC[C@@H]12 [HDDG-004] | – | 25% | 40% |
| CC/C=C\CO[C@@H]1C[C@@H]2[C@H](CC[C@]3(C)C(=O)CC[C@@H]23)[C@@]2(C)C=CC(=O)C=C12 [HDDG-062, (6R,8R,9S,10R,13S,14S)-10,13-dimethyl-6-((Z)-pent-2-en-1-yloxy)-7,8,9,10,11,12,13,14,15,16-decahydro-3H-cyclopenta[α]phenanthrene-3,17(6H)-dione] | 97% | 96% | – |
| C[C@]12CCC(O)=C(OCc3ccccc3)C1=CC[C@@H]1[C@@H]2CC[C@]2(C)C(=O)CC[C@@H]12 [HDDG-050, (8R,9S,10R,13S,14S)-4-(benzyloxy)-3-hydroxy-10,13-dimethyl-7,8,9,10,11,12,13,14,15,16-decahydro-1H-cyclopenta[α]phenanthren-17(2H)-one] | 75% | 96% | 100% |
| C[C@]12CCC(=O)C=C1C(Br)C[C@@H]1[C@@H]2CC[C@]2(C)C(=O)CC[C@@H]12 (stereo partly drawn) [HDDG-017] | – | – | 64% |
| C[C@]12C=CC(=O)C=C1C=C[C@@H]1[C@@H]2CC[C@]2(C)C(=O)CC[C@@H]12 [HDDG-003] | – | 67% | 80% |
| CC/C=C/CO[C@@H]1C[C@@H]2[C@H](CC[C@]3(C)C(=O)CC[C@@H]23)[C@@]2(C)C=CC(=O)C=C12 [HDDG-061, (6R,8R,9S,10R,13S,14S)-10,13-dimethyl-6-((E)-pent-2-en-1-yloxy)-7,8,9,10,11,12,13,14,15,16-decahydro-3H-cyclopenta[α]phenanthrene-3,17(6H)-dione] | 96% | 93% | – |
| CC(C)(C)O[C@@H]1C[C@@H]2[C@H](CC[C@]3(C)C(=O)CC[C@@H]23)[C@@]2(C)C=CC(=O)C=C12 [HDDG-015] | – | – | 54% |
| COC1=C(O)CC[C@@]2(C)C1=CC[C@@H]1[C@@H]2CC[C@]2(C)C(=O)CC[C@@H]12 [HDDG-020] | 21% | 72% | 61% |
| CCCCCO[C@@H]1C[C@@H]2[C@H](CC[C@]3(C)C(=O)CC[C@@H]23)[C@@]2(C)C=CC(=O)C=C12 [HDDG-063, (6R,8R,9S,10R,13S,14S)-10,13-dimethyl-6-(pentyloxy)-7,8,9,10,11,12,13,14,15,16-decahydro-3H-cyclopenta[α]phenanthrene-3,17(6H)-dione] | 96% | 97% | – |
